Measurements reported in patent EP2792360A1, “(1aR,12bS)-8-cyclohexyl-11-fluoro-N-((1-methylcyclopropyl)sulfonyl)-1a-((3-methyl-3,8-diazabicyclo[3.2.1]oct-8-yl)carbonyl)-1,1a,2,2b-tetrahydrocyclopropa[d]indolo[2,1-a][2]benzazepine-5-carboxamide for use in treating HCV” (IP Gesellschaft für Management mbH, priority 2013, dated 2014).
pEC50: −log10 of the molar value.

Assays:
[1] = test system: genotype lb HCV replicon (Huh-7); assay: microbe, parasite or virus in culture; conditions: Hepatitis C virus, Huh-7, 72 h
Method: The protein was expressed with an 18 amino acid C-terminal truncation to enhance the solubility. The E. coli competent cell line BL21(DE3) was used for expression of the protein. […] The cultures were cooled to 20 °C and induced with 1 mM IPTG. […] After addition of the lysis buffer, frozen cell pellets were resuspended using a tissue homogenizer. To reduce the viscosity of the sample, aliquots of the lysate were sonicated on ice using a microtip attached to a Branson sonicator. […] The protein was purified using two sequential chromatography steps: Heparin sepharose CL-6B and polyU sepharose 4B. […] Each column was eluted with a NaCl gradient which varied in length from 5-50 column volumes depending on the column type. […] The enzyme was aliquoted and stored at -80 °C. […] Unbound primer was removed after centrifugation. […] After incubating for at least 15 minutes, plates were read on an Amersham LEADseeker multimodality imaging system. IC50 values for compounds were determined using ten different [I]. […] Cell lines. […] These cells were maintained in Dulbecco's modified Eagle medium (DMEM) containing 10% FBS, 100 U/mL penicillin/streptomycin and 1.0 mg/mL G418. […]

[2] = test system: uric acid in urine; assay: Multiple dose study of TS dispersion, 14 days (Example 6): uric acid excretion in urine; type: in vivo, healthy subjects and elderly subjects; conditions: 24 hour urine, Days 1, 6, 14, 16; returns to baseline by Day 16
Method: Example 6 - Multiple dose study: a double-blind, randomized, placebo-controlled, study in healthy subjects and elderly subjects: Multiple oral doses of 4-[2-(5-amino-1 H-pyrazol-4-yl)-4-chlorophenoxy]-5-chloro-2-fluoro-N-(1,3-thiazol-4-yl)benzenesulfonamide TS dispersion for oral administration, and placebo, were investigated for 14 days, as follows: • healthy subjects, 300 mg twice daily (BID,) • healthy subjects, 450 mg BI D, and • elderly subjects, 300 mg BID.
Subjects were fasted overnight prior to the morning doses and for at least 2 hours prior to the evening doses. Food was withheld for at least 2 hours postdose. A total of 49 subjects were enrolled in the study of which 39 received 4-[2-(5-amino-1 H-pyrazol-4-yl)-4-chlorophenoxy]-5-chloro-2-fluoro-N-(1,3-thiazol-4-yl)benzenesulfonamide TS and 10 received placebo. […]
Concentrations of uric acid in blood decreased following dosing with 4-[2-(5-amino-1 H-pyrazol-4-yl)-4-chlorophenoxy]-5-chloro-2-fluoro-N-(1,3-thiazol-4-yl)benzenesulfonamide. All subjects had blood uric acid values above the LLN on Day 1. […] Uric acid was also measured in urine collected over 24 hours prior to dosing on Day 1, and then on Days 6, 14 and 16. The percent excreted fraction of uric acid in urine was calculated and analyzed with a linear mixed effects model.

[3] = test system: blood uric acid; assay: Multiple dose study of TS dispersion, 14 days (Example 6): blood uric acid level; type: in vivo, healthy subjects and elderly subjects
Method: Example 3 - Preparation of dispersions for oral administration: (a) Using the tosylate salt of 4-r2-(5-Amino-1 H-pyrazol-4-yl)-4-chlorophenoxyl-5- chloro-2-fluoro-N-(1,3-thiazol-4-yl)benzenesulfonamide: Methylcellulose vehicle (0.5% w/v) was prepared as follows. Water for irrigation (600 ml.) was heated in a beaker to between 80°C and 90°C. Methylcellulose (5 g) powder was added, with stirring, until the powder had fully dispersed. The dispersion was then transferred into an ice bath and cooled rapidly whilst adding chilled water for irrigation (400 ml.) to give a clear solution. The dispersion for oral administration was prepared by weighing the required quantity of 4-[2-(5-amino-1 H-pyrazol-4-yl)-4-chlorophenoxy]-5-chloro-2-fluoro-N- (1,3-thiazol-4-yl)benzenesulfonamide tosylate (from 10mg to 2400mg) into an appropriately sized glass amber dosing bottle and adding a volume of vehicle (0.5% (w/v) methylcellulose). The volume of vehicle added was dependant on dose: 15 ml. for doses of drug in the range 10 mg to < 30 mg; and 50 ml. for doses of drug in the range 30 mg to 2400 mg, so that the drug concentration was in the range 0.6 to 50 mg/mL. The dispersion was stored at 2 to 8°C and administered within 72 hours directly from the dosing containers. After administration the glass dosing bottle was rinsed with two approximate equal aliquots of drinking water such that the total volume administered, including dosing volume, was 240 ml_. (b) Using the SDD of 4-[2-(5-Amino-1 H-pyrazol-4-yl)-4-chlorophenoxyl-5-chloro-2- fluoro-N-(1,3-thiazol-4-yl)benzenesulfonamide: Methylcellulose vehicle 0.5% (w/v) was prepared using the procedure set out in Example 3(a) above. The dispersion for oral administration was prepared by weighing the required quantity of 4-[2-(5-amino-1 H-pyrazol-4-yl)-4-chlorophenoxy]-5-chloro-2-fluoro-N- (1,3-thiazol-4-yl)benzenesulfonamide SDD into an appropriately sized glass amber dosing bottle and adding a volume of vehicle (0.5% (w/v) Methylcellulose). The volume of vehicle added was dependent on dose: 20 ml. to 100 ml. over the dose range 10 mg to 2400 mg, so that the drug concentration was in the range 0.6 to 50 mg/mL. The dispersion was stored at 2 to 8°C and administered within 72 hours directly from the dosing containers. After administration the glass dosing bottle was rinsed with two approximate equal aliquots of drinking water such that the total volume administered, including dosing volume, was 240 ml_. […] Uric acid measurements were performed using a commercial colorimetric assay kit (Beckman Coulter). […]

Structure (SMILES)	pEC50 [1]	excreted fraction of uric acid in urine [2]	day on which median blood uric acid concentrations fell below LLN ([3]; 450 mg BID)	median blood uric acid concentration relative to LLN ([3]; all cohorts (300 mg and 450 mg BID), Day 6)	Concentrations of uric acid in blood ([3]; following dosing, given as TS dispersion 300 mg or 450 mg BID)	time after cessation of dosing until blood uric acid returned to above the LLN for all subjects ([3]; i.e. by Day 16) [days]
CN1CC2CCC(C1)N2C(=O)[C@]12C[C@H]1c1cc(F)ccc1-c1c(C3CCCCC3)c3ccc(C(=O)NS(=O)(=O)C4(C)CC4)cc3n1C2 [Compound 2, (1aR,12bS)-8-cyclohexyl-11-fluoro-N-((1-methylcyclopropyl)sulfonyl)-1a-((3-methyl-3,8-diazabicyclo[3.2.1]oct-8-yl)carbonyl)-1,1a,2,12b-tetrahydrocyclopropa[d]indolo[2,1-a][2]benzazepine-5-carboxamide]	8.15					
Nc1[nH]ncc1-c1cc(Cl)ccc1Oc1cc(F)c(S(=O)(=O)Nc2cscn2)cc1Cl [4-[2-(5-amino-1H-pyrazol-4-yl)-4-chlorophenoxy]-5-chloro-2-fluoro-N-(1,3-thiazol-4-yl)benzenesulfonamide]		increases during dosing	Day 3	below the LLN	decreased	≤ 2
